# Measured values: PMC7044277 (Nature Communications, 2020)
# “And” between values parts separate entries of the source, which are not always exact repeats. Equal entries are not always repeated.
# Columns and labels:
# Format in all cases: cell-based
# 320 non-olfactory GPCRs [1] = biological target: 320 non-olfactory GPCRs (Homo sapiens, UniProt P08172)
# 320 non-olfactory GPCRs [2] = biological target: 320 non-olfactory GPCRs (Homo sapiens, UniProt P32239)
# 320 non-olfactory GPCRs [3] = biological target: T1, 320 non-olfactory GPCRs (Homo sapiens, UniProt Q99788)
# T1 construct: expressed in transfected cells; host or cells: HTLA cells
# T1 sequence (Q99788 whole entry): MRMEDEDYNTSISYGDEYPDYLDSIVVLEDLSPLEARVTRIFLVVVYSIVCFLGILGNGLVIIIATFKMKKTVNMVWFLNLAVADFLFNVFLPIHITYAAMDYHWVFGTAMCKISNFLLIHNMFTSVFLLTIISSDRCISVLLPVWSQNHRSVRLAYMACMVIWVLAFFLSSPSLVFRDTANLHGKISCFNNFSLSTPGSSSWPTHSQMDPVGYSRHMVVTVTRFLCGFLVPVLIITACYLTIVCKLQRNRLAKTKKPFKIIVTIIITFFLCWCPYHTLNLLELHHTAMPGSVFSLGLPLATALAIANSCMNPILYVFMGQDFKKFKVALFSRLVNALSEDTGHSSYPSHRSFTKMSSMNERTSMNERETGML
# 320 non-olfactory GPCRs [4] = biological target: T2, 320 non-olfactory GPCRs (Homo sapiens, UniProt Q99527)
# T2 construct: expressed in transfected cells; host or cells: HTLA cells
# T2 sequence (Q99527 whole entry): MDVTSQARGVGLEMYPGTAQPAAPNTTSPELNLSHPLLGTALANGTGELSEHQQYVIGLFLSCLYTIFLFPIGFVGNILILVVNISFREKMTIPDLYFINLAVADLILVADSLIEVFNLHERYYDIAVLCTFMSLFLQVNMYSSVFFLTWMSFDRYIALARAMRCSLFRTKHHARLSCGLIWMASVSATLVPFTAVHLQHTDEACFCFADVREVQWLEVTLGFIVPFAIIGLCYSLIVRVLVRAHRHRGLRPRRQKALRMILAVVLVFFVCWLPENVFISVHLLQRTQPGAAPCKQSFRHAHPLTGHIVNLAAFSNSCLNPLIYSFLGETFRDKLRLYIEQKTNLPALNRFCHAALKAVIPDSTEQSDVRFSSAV
# 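Further: compound tested at 1 µM final concentration.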
# 320 non-olfactory GPCRs (Homo sapiens, UniProt P32239), sequence (P32239 whole entry): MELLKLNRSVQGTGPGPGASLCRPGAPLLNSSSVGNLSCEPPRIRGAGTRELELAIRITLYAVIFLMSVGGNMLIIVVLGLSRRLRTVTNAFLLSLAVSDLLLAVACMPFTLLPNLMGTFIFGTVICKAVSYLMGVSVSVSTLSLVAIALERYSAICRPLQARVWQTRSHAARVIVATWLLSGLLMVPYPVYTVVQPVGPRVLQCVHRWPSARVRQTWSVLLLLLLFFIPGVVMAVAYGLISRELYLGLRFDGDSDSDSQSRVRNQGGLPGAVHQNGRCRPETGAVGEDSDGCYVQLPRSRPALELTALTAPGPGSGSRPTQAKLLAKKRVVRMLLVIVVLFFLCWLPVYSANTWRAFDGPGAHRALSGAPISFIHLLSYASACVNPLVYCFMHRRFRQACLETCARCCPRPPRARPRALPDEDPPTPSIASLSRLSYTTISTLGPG
# 320 non-olfactory GPCRs (Homo sapiens, UniProt P08172), sequence (P08172 whole entry): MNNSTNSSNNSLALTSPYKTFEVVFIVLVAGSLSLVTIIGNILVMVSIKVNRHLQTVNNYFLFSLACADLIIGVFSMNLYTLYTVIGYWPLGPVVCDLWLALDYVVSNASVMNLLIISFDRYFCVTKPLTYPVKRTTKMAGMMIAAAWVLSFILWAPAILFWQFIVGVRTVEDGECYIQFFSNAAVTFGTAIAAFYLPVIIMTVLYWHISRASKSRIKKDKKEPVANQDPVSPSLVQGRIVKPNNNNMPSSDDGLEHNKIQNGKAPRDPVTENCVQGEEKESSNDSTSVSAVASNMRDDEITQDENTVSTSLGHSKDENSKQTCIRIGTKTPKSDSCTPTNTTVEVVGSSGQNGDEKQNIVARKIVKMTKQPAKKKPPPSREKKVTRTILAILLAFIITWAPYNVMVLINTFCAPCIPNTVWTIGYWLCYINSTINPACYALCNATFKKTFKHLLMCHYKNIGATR
smiles,measurement,setting,value
CCOc1cccc2cc(C(C)NCC3(O)CCCCC3)oc12 (stereo not shown) [O4LE6],Fold of Basal,320 non-olfactory GPCRs [1],1.524 and 1.414 and 0.8585 and 0.8596
same,Fold of Basal,320 non-olfactory GPCRs [2],1.067 and 0.8402 and 0.8391 and 1.015
same,Fold of Basal,320 non-olfactory GPCRs [3],0.9321 and 1.173 and 0.7369 and 1.152
same,Fold of Basal,320 non-olfactory GPCRs [4],0.9251 and 0.8387 and 0.6915 and 0.7823
